The values that follow are results of earlier work, collected in patent US20250230478A1, “COMBINATION OF NUCLEIC ACID SEQUENCES ENCODING PROTEINS DERIVED FROM HELICHRYSUM UMBRACULIGERUM, AND ANY […], TISSUE, AND ORGANISM COMPRISING SAME” (YEDA RESEARCH AND DEVELOPMENT CO. LTD., priority 2022, published 2025).

Series [1] deals with α2-adrenergic receptor.
Series [2] has as its target CB1 receptor (Homo sapiens, UniProt P21554).
The target of series [3] is T1, 5-HT1A receptor (Homo sapiens, UniProt P08908).
T1 sequence (P08908 1-422): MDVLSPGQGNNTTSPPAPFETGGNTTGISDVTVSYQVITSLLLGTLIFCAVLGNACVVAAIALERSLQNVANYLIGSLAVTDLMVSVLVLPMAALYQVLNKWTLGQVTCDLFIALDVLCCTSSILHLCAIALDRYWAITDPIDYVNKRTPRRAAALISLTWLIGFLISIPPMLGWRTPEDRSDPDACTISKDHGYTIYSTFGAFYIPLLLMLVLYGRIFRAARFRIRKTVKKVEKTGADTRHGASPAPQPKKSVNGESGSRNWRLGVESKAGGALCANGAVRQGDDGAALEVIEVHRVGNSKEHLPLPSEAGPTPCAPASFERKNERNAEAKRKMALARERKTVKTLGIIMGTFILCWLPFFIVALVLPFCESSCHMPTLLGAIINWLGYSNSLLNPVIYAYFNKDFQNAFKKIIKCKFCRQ

Sequence of CB1 receptor (P21554 whole entry): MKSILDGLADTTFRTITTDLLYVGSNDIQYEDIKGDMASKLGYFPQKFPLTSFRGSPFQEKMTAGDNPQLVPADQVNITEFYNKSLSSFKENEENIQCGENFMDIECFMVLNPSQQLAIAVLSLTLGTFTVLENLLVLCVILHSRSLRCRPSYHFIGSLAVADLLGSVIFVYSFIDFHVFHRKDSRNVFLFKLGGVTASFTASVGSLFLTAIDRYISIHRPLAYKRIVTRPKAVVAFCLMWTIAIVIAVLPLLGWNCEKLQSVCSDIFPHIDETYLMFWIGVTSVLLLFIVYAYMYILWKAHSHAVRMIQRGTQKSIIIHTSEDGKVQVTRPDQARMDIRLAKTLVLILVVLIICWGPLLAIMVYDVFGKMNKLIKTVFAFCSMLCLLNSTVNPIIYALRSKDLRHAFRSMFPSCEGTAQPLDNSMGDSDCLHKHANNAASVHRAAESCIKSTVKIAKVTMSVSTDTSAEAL

As to `CCCCCc1cc(O)c(C/C=C(\C)CCC=C(C)C)c(O)c1` [CBG, cannabigerol], the “affinity as α2-adrenergic receptor agonist” value in series [1] is listed as “high affinity”. The “affinity as CB1 receptor antagonist” value in series [2] was “low affinity”. Also, the “affinity as 5-HT1A receptor antagonist” value in series [3] is “moderate affinity”.
